How the values were obtained:
[1] = biological target: T1, His6-mAf1521 (Archaeoglobus fulgidus, UniProt O28751); test: Pull-down displacement assay: free ADP-ribose added after pull-down of [32P]-ADP-ribosylated β subunit by resin-bound His6-mAf1521; format: binding
T1 construct: made in house
T1 sequence (O28751 1-192): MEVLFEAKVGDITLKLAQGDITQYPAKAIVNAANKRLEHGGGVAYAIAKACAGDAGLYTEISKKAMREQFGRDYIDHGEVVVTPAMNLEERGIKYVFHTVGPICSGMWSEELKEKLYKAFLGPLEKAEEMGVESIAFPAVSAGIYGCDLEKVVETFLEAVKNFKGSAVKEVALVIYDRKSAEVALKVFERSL
Method: Samples (10 µg plasma membranes) were incubated with 50 µl ADP-ribosylation buffer (50 mM potassium phosphate buffer (PFB), pH 7.4, 5 mM MgCl2, 4 mM dithiothreitol (DTT), 10 µM GTPγS, 700 µM β-NAD^+ and 4.5 µCi [^32P]-NAD (specific activity: 1,000 Ci/mmol)) at 37 °C for 60 min, unless otherwise specified. Under these conditions, 10% of the total β was mono-ADP-ribosylated; to obtain maximal modification (80%-100% of total β mono-ADP-ribosylated), the incubation was prolonged to 12 h at 30 °C. The in-vitro PT-catalyzed ADP-ribosylation was performed as previously described^34, using either total membranes or purified proteins (β-action or SLC25A5; Sigma and Abnova Corporation, respectively). […]
Plasma membranes (10 µg for each sample) were ADP-ribosylated as described above, washed with 50 mM PFB, pH 7.4, to remove unbound NAD, and then centrifuged at 16.000x g for 15 min at 4 °C. […] Then the resin was washed three times with RIPA buffer plus 10 mM imidazole, and finally both the washed resin and the unbound fraction (one-eight of the total volume) were diluted in 50 µl Laemmli buffer, boiled and analysed by 10% SDS-PAGE. […] The gels underwent colloidal Coomassie blue (blue code, Pierce) or silver staining, and the bands of interest were analysed by MALDI-TOF-MS. […]

[2] = biological target: T2, Af1521 (Archaeoglobus fulgidus, UniProt O28751); conditions: cited from earlier work
T2 sequence (O28751 1-192): T1 sequence (O28751 1-192)

[3] = system: BAL9; conditions: cited from earlier work

| Compound | excess of ADP-ribose able to displace the immobilized ADP-ribosylated β subunit from the His6-mAf1521-resin complex ([1]; molar excess over bound β subunit) | ADP-ribose concentration to displace all of the His6-mAf1521-bound [32P]-ADP-ribosylated β subunit ([1]; ∼400 pmol ADP-ribose against ∼4 pmol bound β subunit) | fold lower affinity than free ADP-ribose [2] | fold lower affinity than free ADP-ribose [3] |
| --- | --- | --- | --- | --- |
| ADP-ribose | ~100 fold | 100 µM | – | – |
| NC(=O)c1ccc[n+]([C@@H]2O[C@H](COP(=O)([O-])OP(=O)(O)OC[C@H]3O[C@@H](n4cnc5c(N)ncnc54)[C@H](O)[C@@H]3O)[C@@H](O)[C@H]2O)c1 [NAD] | – | – | > 1000 fold | > 1000 fold |
| Nc1ncnc2c1ncn2[C@@H]1O[C@H](CO)[C@@H](O)[C@H]1O [adenosine] | – | – | > 1000 fold | > 1000 fold |

From patent EP2073012A1, “Method for the isolation and identification of ADP-ribosylated molecules” (Fondazione Telethon, priority 2007, dated 2009)
